# Measured values taken from patent US9636377B2, “Compositions and methods for the treatment of retinal degeneration” (UNIVERSITE DE STRASBOURG, priority 2012, dated 2017).
# *: point of attachment. Cbz = O=C(OCc1ccccc1)*; CH2F = FC*
# How the values were obtained:
# peIF2α, CHOP10 and BiP = experiment: Western blot of UPR proteins in retinal explants; type: cell-based, mouse; settings: shRNA-treated retinal explants
# Experimental: (§1) Wild-type animals were on a C57BL/6 background. The retinal explant culture procedure was carried out as previously described (Reidel et al., 2006). Briefly, 15-day-old mice were sacrificed by decapitation and eyes were removed and incubated in trypsin (catalog #25200-072, Gibco, Invitrogen, Paris, France) for 10 min at 37° C. Digestion was stopped by transferring eyes in DMEM+10% fetal bovine serum (catalog #31885-023 and 10500-064, Gibco) and incubation for 10 min at 4° C. Eyes were dissected in Ame's medium (catalog#15230-097, Gibco) supplemented with 6.5 g/L glucose. First, the sclera was carefully removed, leaving the retinal pigmented epithelium (RPE) attached to the eyeball. Incisions were made at the edge of the cornea to remove the cornea, lens and hyaloid body. Then four radial incisions were made in the retina to obtain a cross shape. Retinas were transferred on a nitrocellulose culture membrane (catalog # PICMORG50, Millipore, Molsheim, France) with RPE side down and cultivated in Neurobasal A medium (catalog #108888-022, Gibco) supplemented with B27 supplement (catalog #17504-044, Gibco), L-glutamine (catalog #35050-061, Gibco) and penicillin/streptomycin (catalog #15240; Gibco). Explants were maintained at 37° C. humidified 5% CO2. Specific gene silencing using lentiviruses carrying shRNA sequences for Bbs12, Perk, Hri or Rhodopsin (Santa Cruz Biotechnology, Tebu Bio, Yvelines, France) were performed by adding 20 μl of viral suspension (1×10^5 infectious units) in the culture medium overnight before whole medium change. The infected explants were then cultured for 3 days with a half medium change on a daily basis. Explants were not maintained longer in culture to avoid unspecific apoptosis in the different retinal layers. […] Drugs were added simultaneously with viral infection to the culture medium.
# Proteins were obtained by lysis in RIPA buffer (150 mM NaCl, 50 mM TrisHCl pH 8, 0.1% Tween20, catalog # P7653, T3253, 93773, Sigma-Aldrich) supplemented with Protease Inhibitors Complete Mini EDTA-free (catalog #11836 170001, Roche, Boullogne-Billancourt, France), 1 mM NaVO4 and 25 mM NaF (catalog # S6508 and S7920, Sigma-Aldrich). After retina dissociation using dounce homogenizer, samples were sonicated and protein concentration was determined using Bradford reagent (catalog #500-0006, BioRad). For Western blotting, 80 μg of whole protein extracts were loaded per lane and Ponceau S staining was used as loading control for signal quantification. Antibody binding was visualized using SuperSignal West Femto Maximum Sensitivity Substrate (catalog #34095, ThermoFisher) on a Versadoc apparitus, BioRad. Signal quantification was assed using QuantityOne software from BioRad.
# [1] = system: eIF2α phosphorylation and BiP; experiment: Western blot of phosphorylated eIF2α and BiP in retinas of treated Bbs12−/− mice; type: in vivo, mouse
# Experimental: The Bbs12^-/- mice were generated as previously described. Bbs12^-/- mice were obtained by crossing heterozygote animals. Mice were housed in humidity and temperature controlled rooms on a 12-hour light/12-hour dark cycle with food ad libitum and water. For anti-apoptotic treatments, animals were treated with eye drops from 2 to 4 weeks of age once a day; the eye drops contain GBZ 7.5 μM and Caspase Inhibitor 500 μM for the left eye and contain 5% DMSO for the right eye. […] Eye drop treatment was achieved from 2 to 4 weeks of age and systemic treatments were achieved from 3 to 4 weeks of age. At 4 weeks of age, electrophysiological analyses were performed and the retinas were harvested for molecular analysis. […] After retina dissociation using dounce homogenizer, samples were sonicated and protein concentration was determined using Bradford reagent (catalog #500-0006, BioRad). For Western blotting, 80 μg of whole protein extracts were loaded per lane and Ponceau S staining was used as loading control for signal quantification. […] Signal quantification was assed using QuantityOne software from BioRad.
# Bbs12−/− mouse retina [2] = experiment: Scotopic electroretinogram of treated Bbs12−/− mice; type: in vivo; settings: 4 weeks of age; for scotopic ERG recording: systemic VPA 5 mg/mL, systemic GBZ 50 μM, or GIV (eye drops GBZ 7.5 μM + INH 500 μM, systemic VPA)
# Experimental: The Bbs12^−/− mice were generated as previously described. Bbs12^−/− mice were obtained by crossing heterozygote animals. Mice were housed in humidity and temperature controlled rooms on a 12-hour light/12-hour dark cycle with food ad libitum and water. For anti-apoptotic treatments, animals were treated with eye drops from 2 to 4 weeks of age once a day; the eye drops contain GBZ 7.5 μM and Caspase Inhibitor 500 μM for the left eye and contain 5% DMSO for the right eye. […] Eye drop treatment was achieved from 2 to 4 weeks of age and systemic treatments were achieved from 3 to 4 weeks of age. At 4 weeks of age, electrophysiological analyses were performed and the retinas were harvested for molecular analysis.
# Mice were dark adapted for 12 hours before recording. Those experiments were performed under dim red light. The mice were anesthetized with the same anesthesia mix described in the section above. The pupils were dilated with eye drops of atropine 0.3% (catalog # Atropine Alcon 0.3%, Alcon, Rueil-Malmaison, France). Animals were placed on a controlled heating pad and maintained at 37° C. during the procedure. The reference electrode was placed under the head skin and the background electrode was inserted in the tail of the animal. The measuring electrode was placed on the cornea, to optimize contact between the cornea and the gold electrode, and a drop of methylcellulose gel (catalog # Ocry-gel, TVM Laboratories, Lempdes, France) was added. Flashes were delivered though a Ganzfeld equipped with light-emitting diodes with maximum output of 318 cd/m^2 (Siem Biomédicale, Nimes, France). For the scotopic ERG, the flash duration varied from 3 to 5 ms with final flash output ranging from 0.001 to 1 cd*s/m^2. Responses were amplified, filtered (1-300-Hz band pass), and digitized (Visiosystem; Siem Biomédicale). The a and b waves were measured by using a 1-75-Hz band pass to filter oscillatory potentials.
# [3] = system: Bbs12 depleted retinal explants (photoreceptor apoptosis, ONL); experiment: TUNEL assay, apoptotic rate of photoreceptors in shRNA-treated retinal explants; type: cell-based, mouse; settings: for apoptotic rate (proportion of apoptotic photoreceptor nucleus): shBbs12 explants, single treatments 2 mM VPA, 25 μM GBZ, 10 μM INH, 33% without treatment
# Experimental: as §1
# For immunofluorescence experiments and TUNEL assay retinal explants were fixed directly on membranes with Formalin 10% for 1 hour at 4° C. Sucrose impregnation was then performed using 10%, 20% and 30% sucrose baths, 20 min each. Explants were transferred to OCT (catalog #4583, Tissue-Tek, Sakura, Villeneuve d′Ascq, France) in mold and frozen in liquid nitrogen. 8 μm thin cryosections were mounted on StarFrost slides (catalog # VS1117, Waldemar Knittel Glasbearbeitungs, Braunschweig, Germany).
# Sections or cells were washed with PBS 1× and shortly fixated with Formalin 10% solution for 5 minutes and washed three times with PBS 1×. […] The prevalence of apoptotic nuclei was expressed as the ratio of TUNEL-positive nuclei and DAPI-stained nuclei in three different areas of the ONL per experiment. […]
# [4] = system: Bip, Chop10 and Caspase12 mRNA; experiment: mRNA expression of ER stress genes in retinal explants (quantitative PCR); type: cell-based, mouse
# Experimental: as §1
# Total RNA was extracted with Trizol (catalog #15596-018, Invitrogen). […] was DNAse treated using TURBO DNA-free Kit (catalog # AM1907, Applied Biosystems, Villebon-sur-Yvette, France) and then reverse transcribed using the iScript cDNA synthesis kit (catalog #170-8891, BioRad, Marne-la-coquette, France). Primers (listed in supplementary methods) were purchased from Qiagen, Courtaboeuf, France. Quantitative PCR were performed using SYBR Green PCR Mix (catalog #4367659, Applied Biosystems) on a BioRad CFX96 system. mRNA expressions were expressed as relative to Gapdh RNA content, using BioRad CFX manager software. For endoplasmic reticulum stress arrays, Custom TaqMan Array 96 was purchased for Applied Biosystems; all tested genes are listed in supplementary methods.
# Bbs12−/− mouse retina [5] = experiment: Retinal histology (ONL thickness, cilia) of treated Bbs12−/− mice; type: in vivo; settings: for ONL layer thickness: 4 weeks of age, 37 μm for untreated retinas
# Experimental: The Bbs12^−/− mice were generated as previously described. Bbs12^−/− mice were obtained by crossing heterozygote animals. Mice were housed in humidity and temperature controlled rooms on a 12-hour light/12-hour dark cycle with food ad libitum and water. For anti-apoptotic treatments, animals were treated with eye drops from 2 to 4 weeks of age once a day; the eye drops contain GBZ 7.5 μM and Caspase Inhibitor 500 μM for the left eye and contain 5% DMSO for the right eye. […] Eye drop treatment was achieved from 2 to 4 weeks of age and systemic treatments were achieved from 3 to 4 weeks of age. At 4 weeks of age, electrophysiological analyses were performed and the retinas were harvested for molecular analysis. Sections or cells were washed with PBS 1× and shortly fixated with Formalin 10% solution for 5 minutes and washed three times with PBS 1×. The sections were then pre-incubated with Teng-T (10 mM TrisHCl (pH=7.6), 5 mM EDTA (catalog # E5768, Sigma-Aldrich), 150 mM NaCl, 0.25% gelatin (catalog # G9391, Sigma-Aldrich), 0.05% Tween-20)/10% normal goat serum (catalog #PCN5000, Gibco) for 30 min, followed by an overnight incubation with the primary antibody diluted in Teng-T/10% NGS at 4° C. Slides were then washed with PBS 1× and incubated with the indicated secondary antibody in Teng-T/10% NGS for 1 hour at room temperature. Slides were washed in PBS 1× and nuclear staining was performed with DAPI (catalog # D1306, Invitrogen). Slides were mounted with Immumount (catalog #9990402, ThermoFisher). TUNEL assays were performed using In Situ Cell Death Detection Kit (catalog #11684795910, Roche) according to suppliers' protocol. The prevalence of apoptotic nuclei was expressed as the ratio of TUNEL-positive nuclei and DAPI-stained nuclei in three different areas of the ONL per experiment. All results shown are representative of at least 3 separate experiments.
# Bbs1M390R/M390R mice = settings: cited from earlier work
# RP patients = RP patients treated for 2 or 4 months; cited from earlier work
# rat retina = settings: ischemia-reperfusion injury, systemic administration; cited from earlier work
# [6] = control conditions (shCtl explants)
Molecule,"CHOP10 protein content (peIF2α, CHOP10 and BiP)","eIF2α phosphorylation (peIF2α), protein level (peIF2α, CHOP10 and BiP)","a wave amplitude, scotopic ERG (Bbs12−/− mouse retina [2])","b wave amplitude, scotopic ERG (Bbs12−/− mouse retina [2])",scotopic ERG recording (Bbs12−/− mouse retina [2]),apoptotic rate (proportion of apoptotic photoreceptor nucleus) [3] [%],Bip mRNA expression ([4]; after Bbs12 depletion),Caspase12 mRNA expression ([4]; after Bbs12 depletion),Chop10 mRNA expression ([4]; after Bbs12 depletion),"protective effect on photoreceptors, overall in vivo (electrophysiological and histological analysis) (Bbs12−/− mouse retina [5])",ONL layer thickness (Bbs12−/− mouse retina [5]) [μm],other results
"N=C(N)N/N=C/c1c(Cl)cccc1Cl [GBZ, guanabenz]",increase,maintained in a phosphorylated status,significantly increased,significantly increased,clear amelioration,12,decreased,decreased,decreased,efficient to reduce photoreceptor apoptosis,45,phosphorylated status of eIF2α [1]: increased
"C[C@H](CCC(=O)NCCS(=O)(=O)O)[C@H]1CC[C@H]2[C@@H]3[C@@H](O)C[C@@H]4C[C@H](O)CC[C@]4(C)[C@H]3CC[C@]12C [TUDCA, tauroursodeoxycholic acid]",–,–,–,–,–,–,–,–,–,–,–,retinal thickness (Bbs1M390R/M390R mice): induced retinal thickening
"CCCC(CCC)C(=O)O [VPA, valproic acid]",decreased,decreased,significantly increased,higher,clear amelioration,17,lower,lower,lower,efficient to reduce photoreceptor apoptosis,44,"visual field (RP patients): increase of visual field in 5 to 7 patients; BiP protein content (peIF2α, CHOP10 and BiP): increased; BiP protein level [1]: increased; apoptotic rate ([3]; shCtl explants, 2 mM VPA, TUNEL-positive nuclei/DAPI in ONL): 13%; BiP expression (rat retina): increased; caspase-12 activation (rat retina): reduced; Bip mRNA expression [4, 6]: twofold increase; Caspase12 mRNA expression [4, 6]: not significantly changed; Chop10 mRNA expression [4, 6]: not significantly changed"
"Z-Ala-Thr-Ala-Asp(O-methyl)-fluoromethyl-ketone (Cbz-ATAD(OMe)-CH2F; SMILES COC(=O)C[C@H](NC(=O)[C@H](C)NC(=O)[C@@H](NC(=O)[C@H](C)NC(=O)OCc1ccccc1)[C@@H](C)O)C(=O)CF) [INH, Promokine]",decrease,decrease,–,–,–,23,–,–,–,–,–,–
